From PubChem BioAssay AID1745844 (Carcinogenic Potency Database (CPDB), 2022) come the findings set out here.

The source made the active and inactive calls. No rule for the calls is given here.

The term TD50 denotes the dose at which the toxic effect under study appears in half of the subjects.

The series has as its system rodent lifetime carcinogenesis bioassay, tumor incidence TD50. The experiment in a line: chronic cancer bioassays in animals – CPDB, compiled studies (AID 1745844).

Regarding `CBr`, the carcinogen call is “negative (inactive)” (mouse, strain B6C3F1, females, inhaled, site: any site (literature study), lesion: several types, types named in the paper, dosed 75 weeks, study length 104 weeks); “negative (inactive)” (mouse, strain B6C3F1, males, inhaled, site: any site (literature study), lesion: several types, types named in the paper, dosed 75 weeks, study length 104 weeks); “negative (inactive)” (mouse, strain Crj:BDF1, females, inhaled, site: liver, lesion: hepatocellular adenoma, dosed 104 weeks, study length 105 weeks); “negative (inactive)” (mouse, strain Crj:BDF1, females, inhaled, site: lung, lesion: alveolar/bronchiolar carcinoma, dosed 104 weeks, study length 105 weeks); “negative (inactive)” (mouse, strain Crj:BDF1, males, inhaled, site: liver, lesion: hepatocellular adenoma, dosed 104 weeks, study length 105 weeks); “negative (inactive)” (mouse, strain Crj:BDF1, males, inhaled, site: liver, lesion: hepatocellular carcinoma, dosed 104 weeks, study length 105 weeks). Moreover, the carcinogen call is, setting by setting: (mouse, strain Crj:BDF1, males, inhaled, site: lung, lesion: alveolar/bronchiolar adenoma, dosed 104 weeks, study length 105 weeks) “negative (inactive)”; (mouse, strain Crj:BDF1, males, inhaled, site: lung, lesion: alveolar/bronchiolar carcinoma, dosed 104 weeks, study length 105 weeks) “negative (inactive)”; (rat, strain F344/DuCrj, females, inhaled, site: liver, lesion: hepatocellular adenoma, dosed 104 weeks, study length 105 weeks) “negative (inactive)”; (rat, strain F344/DuCrj, females, inhaled, site: liver, lesion: hepatocellular carcinoma, dosed 104 weeks, study length 105 weeks) “negative (inactive)”; (rat, strain F344/DuCrj, males, inhaled, site: liver, lesion: hepatocellular adenoma, dosed 104 weeks, study length 105 weeks) “negative (inactive)”; (rat, strain F344/DuCrj, males, inhaled, site: liver, lesion: hepatocellular carcinoma, dosed 104 weeks, study length 105 weeks) “negative (inactive)”. In addition, the carcinogen call is, setting by setting: (rat, strain Wistar-random, females, inhaled, site: any site (literature study), lesion: malignant tumor, dosed 129 weeks, study length 129 weeks) “negative (inactive)”; (rat, strain Wistar-random, females, inhaled, site: any site (literature study), lesion: one or several types, types not named, dosed 129 weeks, study length 129 weeks) “negative (inactive)”; (rat, strain Wistar-random, females, inhaled, site: liver, lesion: cholangiocarcinoma, dosed 129 weeks, study length 129 weeks) “negative (inactive)”; (rat, strain Wistar-random, females, inhaled, site: nasal cavity, olfactory epithelium, lesion: one or several types, types not named, dosed 129 weeks, study length 129 weeks) “negative (inactive)”; (rat, strain Wistar-random, females, inhaled, site: nasal cavity, respiratory epithelium, lesion: one or several types, types not named, dosed 129 weeks, study length 129 weeks) “negative (inactive)”; (rat, strain Wistar-random, males, inhaled, site: any site (literature study), lesion: malignant tumor, dosed 128 weeks, study length 128 weeks) “negative (inactive)”. The carcinogen call (rat, strain Wistar-random, males, inhaled, site: any site (literature study), lesion: one or several types, types not named, dosed 128 weeks, study length 128 weeks) was “negative (inactive)”; the carcinogen call (rat, strain Wistar-random, males, inhaled, site: liver, lesion: cholangiocarcinoma, dosed 128 weeks, study length 128 weeks) is “negative (inactive)”; the carcinogen call (rat, strain Wistar-random, males, inhaled, site: liver, lesion: hepatocellular carcinoma, dosed 128 weeks, study length 128 weeks) is “negative (inactive)”; the carcinogen call (rat, strain Wistar-random, males, inhaled, site: liver, lesion: neoplastic nodule, dosed 128 weeks, study length 128 weeks) is “negative (inactive)”; the carcinogen call (rat, strain Wistar-random, males, inhaled, site: nasal cavity, olfactory epithelium, lesion: one or several types, types not named, dosed 128 weeks, study length 128 weeks) is “negative (inactive)”; the carcinogen call (rat, strain Wistar-random, males, inhaled, site: nasal cavity, respiratory epithelium, lesion: fibrosarcoma, dosed 128 weeks, study length 128 weeks) is “negative (inactive)”. The carcinogen call was “negative (inactive)” (rat, strain Wistar-random, males, inhaled, site: nasal cavity, respiratory epithelium, lesion: osteosarcoma, dosed 128 weeks, study length 128 weeks); “negative (inactive)” (rat, strain Wistar-random, males, inhaled, site: nasal cavity, respiratory epithelium, lesion: squamous-cell carcinoma, dosed 128 weeks, study length 128 weeks); “negative (inactive)” (rat, strain Wistar-random, males, inhaled, site: pituitary gland, lesion: hemorrhagic tumor, dosed 128 weeks, study length 128 weeks). Further, the TD50 was 23900 mg/kg/day (inactive) (mouse, strain Crj:BDF1, females, inhaled, site: liver, lesion: hepatocellular carcinoma, dosed 104 weeks, study length 105 weeks); 6420 mg/kg/day (inactive) (mouse, strain Crj:BDF1, females, inhaled, site: lung, lesion: alveolar/bronchiolar adenoma, dosed 104 weeks, study length 105 weeks); 845 mg/kg/day (inactive) (mouse, strain Crj:BDF1, females, inhaled, site: lymph node, lesion: malignant lymphoma, dosed 104 weeks, study length 105 weeks); 805 mg/kg/day (inactive) (rat, strain F344/DuCrj, females, inhaled, site: adrenal gland, lesion: pheochromocytoma, dosed 104 weeks, study length 105 weeks); 40.8 mg/kg/day (inactive) (rat, strain F344/DuCrj, males, inhaled, site: peritoneum, lesion: mesothelioma, malignant, dosed 104 weeks, study length 105 weeks); 31.8 mg/kg/day (inactive) (rat, strain F344/DuCrj, males, inhaled, site: pituitary gland, lesion: adenoma, dosed 104 weeks, study length 105 weeks). For the same molecule, under “rat, strain Wistar-random, females, inhaled, site: liver, lesion: neoplastic nodule, dosed 129 weeks, study length 129 weeks”, the TD50 was 2240 mg/kg/day (inactive).

Consider `CN(C)CCN(Cc1ccco1)c1ccccn1`, for which the carcinogen call was “negative (inactive)” (rat, strain Fischer 344, females, in drinking water, site: liver, lesion: several types, types named in the paper, dosed 94 weeks, study length 130 weeks) and “negative (inactive)” (rat, strain Fischer 344, males, in drinking water, site: liver, lesion: several types, types named in the paper, dosed 94 weeks, study length 115 weeks). Moreover, the TD50 (rat, strain Fischer 344, females, in drinking water, site: thyroid follicle, lesion: several types, types named in the paper, dosed 94 weeks, study length 130 weeks) is 559 mg/kg/day (inactive).

For the molecule `C=C(C)CCl`, the TD50 was 149 mg/kg/day (mouse, strain B6C3F1, females, by gavage, site: any site (literature study), lesion: several types, types named in the paper, dosed 103 weeks, study length 105 weeks); 82.3 mg/kg/day (mouse, strain B6C3F1, females, by gavage, site: forestomach, lesion: squamous-cell carcinoma + squamous-cell papilloma, dosed 103 weeks, study length 105 weeks); 87.7 mg/kg/day (mouse, strain B6C3F1, females, by gavage, site: forestomach, lesion: squamous-cell papilloma, dosed 103 weeks, study length 105 weeks); 5180 mg/kg/day (mouse, strain B6C3F1, females, by gavage, site: lung, lesion: alveolar/bronchiolar adenoma + alveolar/bronchiolar carcinoma, dosed 103 weeks, study length 105 weeks); 402 mg/kg/day (mouse, strain B6C3F1, males, by gavage, site: any site (literature study), lesion: several types, types named in the paper, dosed 103 weeks, study length 105 weeks); 73.5 mg/kg/day (mouse, strain B6C3F1, males, by gavage, site: forestomach, lesion: squamous-cell carcinoma + squamous-cell papilloma, dosed 103 weeks, study length 105 weeks). Moreover, the TD50 is, setting by setting: (mouse, strain B6C3F1, males, by gavage, site: forestomach, lesion: squamous-cell carcinoma, dosed 103 weeks, study length 105 weeks) 432 mg/kg/day; (mouse, strain B6C3F1, males, by gavage, site: forestomach, lesion: squamous-cell papilloma, dosed 103 weeks, study length 105 weeks) 96.2 mg/kg/day; (mouse, strain BDF1, females, inhaled, site: Harderian gland, lesion: adenoma, dosed 104 weeks, study length 104 weeks) 665 mg/kg/day; (mouse, strain BDF1, females, inhaled, site: forestomach, lesion: squamous-cell papilloma, dosed 104 weeks, study length 104 weeks) 1850 mg/kg/day; (mouse, strain BDF1, females, inhaled, site: liver, lesion: hepatocellular carcinoma, dosed 104 weeks, study length 104 weeks) 60000 mg/kg/day; (mouse, strain BDF1, females, inhaled, site: lung, lesion: alveolar/bronchiolar carcinoma, dosed 104 weeks, study length 104 weeks) 6750 mg/kg/day. Further, the TD50 is, setting by setting: (mouse, strain BDF1, males, inhaled, site: forestomach, lesion: squamous-cell carcinoma, dosed 104 weeks, study length 104 weeks) 11500 mg/kg/day; (mouse, strain BDF1, males, inhaled, site: forestomach, lesion: squamous-cell papilloma, dosed 104 weeks, study length 104 weeks) 2040 mg/kg/day; (mouse, strain BDF1, males, inhaled, site: lung, lesion: alveolar/bronchiolar adenoma, dosed 104 weeks, study length 104 weeks) 1020 mg/kg/day; (mouse, strain BDF1, males, inhaled, site: lung, lesion: alveolar/bronchiolar carcinoma, dosed 104 weeks, study length 104 weeks) 1570 mg/kg/day; (rat, strain Fischer 344, females, by gavage, site: any site (literature study), lesion: several types, types named in the paper, dosed 103 weeks, study length 105 weeks) 323 mg/kg/day; (rat, strain Fischer 344, females, by gavage, site: forestomach, lesion: papilloma, NOS, dosed 103 weeks, study length 105 weeks) 320 mg/kg/day. Moreover, the TD50 is 524 mg/kg/day (rat, strain Fischer 344, females, by gavage, site: subcutaneous tissue, lesion: fibroma, dosed 103 weeks, study length 105 weeks); 109 mg/kg/day (rat, strain Fischer 344, males, by gavage, site: any site (literature study), lesion: several types, types named in the paper, dosed 103 weeks, study length 105 weeks); 68.7 mg/kg/day (rat, strain Fischer 344, males, by gavage, site: forestomach, lesion: papilloma, NOS, dosed 103 weeks, study length 105 weeks); 714 mg/kg/day (rat, strain Fischer 344, males, by gavage, site: liver, lesion: hepatocellular adenoma + hepatocellular carcinoma + neoplastic nodule, dosed 103 weeks, study length 105 weeks); 54 mg/kg/day (rat, strain Fischer 344, males, by gavage, site: testis, lesion: interstitial-cell tumor, dosed 103 weeks, study length 105 weeks).
